Here are results for ten compounds from patent US20250368647A1, “NITROGEN CONTAINING CONDENSED 2,3-DIHYDROQUINAZOLINONE COMPOUNDS AS NAV1.8 INHIBITORS” (GLAXOSMITHKLINE INTELLECTUAL PROPERTY DEVELOPMENT LIMITED, priority 2022, published 2025).

SMILES strings stand for the structures. Structures can show the parent of a compound that is named as a salt.

Chain of human Nav1.8 (Q9Y5Y9 whole entry): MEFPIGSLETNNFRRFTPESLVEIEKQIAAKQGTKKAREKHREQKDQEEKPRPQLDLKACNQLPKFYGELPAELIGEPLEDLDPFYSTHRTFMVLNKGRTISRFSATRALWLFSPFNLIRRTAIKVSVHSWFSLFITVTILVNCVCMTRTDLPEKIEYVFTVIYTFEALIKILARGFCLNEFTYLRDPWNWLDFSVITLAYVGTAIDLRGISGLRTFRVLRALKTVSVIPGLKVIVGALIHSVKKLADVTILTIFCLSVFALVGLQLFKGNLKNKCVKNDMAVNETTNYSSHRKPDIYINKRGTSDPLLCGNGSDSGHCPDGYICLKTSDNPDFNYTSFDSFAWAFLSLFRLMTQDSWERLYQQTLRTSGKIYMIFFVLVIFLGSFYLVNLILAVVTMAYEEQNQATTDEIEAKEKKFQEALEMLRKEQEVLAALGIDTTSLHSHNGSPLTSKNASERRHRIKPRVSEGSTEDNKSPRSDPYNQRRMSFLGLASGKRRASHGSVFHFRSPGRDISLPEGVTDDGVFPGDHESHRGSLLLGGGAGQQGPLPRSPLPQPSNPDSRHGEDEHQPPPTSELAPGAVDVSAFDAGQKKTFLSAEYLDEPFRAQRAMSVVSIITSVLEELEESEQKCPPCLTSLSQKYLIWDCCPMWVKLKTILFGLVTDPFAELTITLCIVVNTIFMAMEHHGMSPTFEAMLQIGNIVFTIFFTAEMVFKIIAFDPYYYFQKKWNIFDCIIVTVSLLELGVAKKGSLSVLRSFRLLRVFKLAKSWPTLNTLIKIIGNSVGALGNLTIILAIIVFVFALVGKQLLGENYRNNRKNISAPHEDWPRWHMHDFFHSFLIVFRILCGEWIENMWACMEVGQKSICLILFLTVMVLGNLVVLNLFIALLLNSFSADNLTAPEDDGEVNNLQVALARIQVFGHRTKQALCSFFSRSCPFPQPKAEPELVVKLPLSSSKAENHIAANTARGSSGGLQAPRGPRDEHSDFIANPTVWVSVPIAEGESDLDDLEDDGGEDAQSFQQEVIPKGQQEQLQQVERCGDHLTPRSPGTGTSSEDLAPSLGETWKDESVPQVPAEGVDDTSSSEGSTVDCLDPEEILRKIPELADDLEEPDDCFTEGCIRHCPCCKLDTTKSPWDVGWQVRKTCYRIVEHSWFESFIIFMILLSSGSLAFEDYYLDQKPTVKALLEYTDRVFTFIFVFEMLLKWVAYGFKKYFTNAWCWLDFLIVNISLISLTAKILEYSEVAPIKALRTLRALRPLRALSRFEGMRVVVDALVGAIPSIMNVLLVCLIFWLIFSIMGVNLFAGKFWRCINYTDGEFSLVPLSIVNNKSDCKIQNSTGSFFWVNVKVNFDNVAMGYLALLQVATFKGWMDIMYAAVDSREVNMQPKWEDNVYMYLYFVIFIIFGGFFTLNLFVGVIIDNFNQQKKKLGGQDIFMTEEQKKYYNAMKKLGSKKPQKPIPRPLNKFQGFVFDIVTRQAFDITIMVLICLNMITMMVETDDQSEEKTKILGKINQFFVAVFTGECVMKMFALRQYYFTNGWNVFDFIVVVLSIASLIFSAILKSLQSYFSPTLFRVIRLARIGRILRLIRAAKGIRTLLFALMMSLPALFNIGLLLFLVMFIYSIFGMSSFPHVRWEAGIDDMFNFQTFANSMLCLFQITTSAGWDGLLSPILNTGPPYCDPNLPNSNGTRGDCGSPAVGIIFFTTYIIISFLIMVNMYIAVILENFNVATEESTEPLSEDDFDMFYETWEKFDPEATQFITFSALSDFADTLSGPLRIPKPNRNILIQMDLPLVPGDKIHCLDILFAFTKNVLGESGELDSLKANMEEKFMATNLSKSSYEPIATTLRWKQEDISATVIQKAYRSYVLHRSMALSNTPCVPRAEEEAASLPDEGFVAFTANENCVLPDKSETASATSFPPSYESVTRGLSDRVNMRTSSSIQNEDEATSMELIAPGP
Chain of human Nav1.8 (Q07699 19-218 partner): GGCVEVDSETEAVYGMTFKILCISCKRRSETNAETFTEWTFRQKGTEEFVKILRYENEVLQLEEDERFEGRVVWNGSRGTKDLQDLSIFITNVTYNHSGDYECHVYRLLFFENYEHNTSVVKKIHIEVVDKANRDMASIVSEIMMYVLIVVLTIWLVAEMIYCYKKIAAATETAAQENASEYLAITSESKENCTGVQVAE

One test concerns the target human Nav1.8 (Homo sapiens (Human), UniProt Q9Y5Y9). The test can be described thus: QPatch 48 HTX voltage-clamp electrophysiology, half inactivation state (V1/2) protocol, HEK293-Nav1.8 cells. The class given is cell-based. The conditions noted are these: HEK293 cells expressing human Nav1.8, human Navβ1 and human TREK1, P2 current. The method in brief:
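HEK293 cells co-expressing Navβ1 and TREK1 were voltage-clamped from −100 mV: a 20 ms step to 0 mV, 8 s inactivation at −46 mV, 20 ms at −100 mV, then a 20 ms P2 test step to 0 mV, repeated every 15 s. P2 current was normalized to vehicle and full block, corrected for run-down, and Hill-fitted (4–6 concentrations) for IC50.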
Background: In patch-clamp work, channel activity is measured electrically.
`O=C1c2cc(F)c(Cl)cc2N2CN1c1ccc(=O)[nH]c1NCCCc1cc(F)ccc12` [Example 93, 3-Chloro-2,8-difluoro-10,11,12,13-tetrahydro-19H-5,18-methanodibenzo[f,i]pyrido[2,3-b]-[1,4,8]triazacyclotridecine-15,19(14H)-dione]: the “Nav1.8, pIC50” value is 8.1. On the same count and under the same terms, in the case of `O=C1c2cc(F)c(F)cc2N2CN1c1ccc(=O)[nH]c1NCCCc1cc(F)ccc12` [Example 91, 2,3,8-Trifluoro-10,11,12,13-tetrahydro-19H-5,18-methanodibenzo[f,i]pyrido[2,3-b]-[1,4,8]triazacyclotridecine-15,19(14H)-dione] it was 7.9. The same measure, in the same setting: in the case of `N#Cc1cc2c(cc1F)C(=O)N1CN2c2ccc(F)c(F)c2CCCNc2[nH]c(=O)ccc21` [Example 99, 2,8,9-Trifluoro-15,19-dioxo-10,11,12,13,14,15-hexahydro-19H-5,18-methano-dibenzo [f,i]pyrido[2,3-b][1,4,8]triazacyclotridecine-3-carbonitrile] it was 7.7. Same read-out and setting: the figure for `CC1CCc2c(ccc(F)c2F)N2CN(C(=O)c3cc(F)c(C(F)(F)F)cc32)c2ccc(=O)[nH]c2N1` (stereo not shown) [Example 130, 2,8,9-Trifluoro-12-methyl-3-(trifluoromethyl)-10,11,12,13-tetrahydro-19H-5,18-methanodibenzo[f,i]pyrido[2,3-b][1,4,8]triazacyclotridecin-15,19(14H)-dione] is 6.8. As to `Cl.N#Cc1cc2c(cc1F)C(=O)N1CN2c2ccc(F)c(Cl)c2CNCCCc2[nH]c(=O)ccc21` [Example 110, 3^3-Chloro-2^6,3^4-difluoro-1^2,2^4-dioxo-1^1,1^2,2^1,2^2,2^3 2^4-hexahydro-5-aza-2(3,1)-quinazolina-1(5,6)-pyridina-3(1,2)-benzenacyclooctaphane-2^7-carbonitrile hydrochloride], the “Nav1.8, pIC50” value is 6.8. For `Cl.[2H]C1([2H])N2C(=O)c3cc(F)c(F)cc3N1c1ccc(F)c(Cl)c1CNCCc1[nH]c(=O)ccc12` [Example 65, 9-Chloro-2,3,8-trifluoro-10,11,12,13-tetrahydro-19H-5,18-methanodibenzo[c,f]pyrido[3,2-j][1,5,9]triazacyclotridecine-15,19(14H)-dione-20,20-d2 hydrochloride], the “Nav1.8, pIC50” value came out at 8.3. The same measure, in the same setting: in the case of `Cl.N#Cc1cc2c(cc1Cl)C(=O)N1CN2c2ccc(F)cc2CCCNc2[nH]c(=O)ccc21` [Example 100, 2-Chloro-8-fluoro-15,19-dioxo-10,11,12,13,14,15-hexahydro-19H-5,18-methano-dibenzo[f,i]pyrido[2,3-b][1,4,8]triazacyclotridecine-3-carbonitrile, hydrochloride] it was 7.5.

The test is the same for the next values; noted with them: HEK293 cells expressing human Nav1.8, human Navβ1 and human TREK1, P2 current, read-out: Nav1.8, pIC50 (converted).
Consider `CC[C@@H]1NCCc2[nH]c(=O)ccc2N2CN(c3cc(C(F)(F)F)c(F)cc3C2=O)c2ccc(F)cc21` [Example 128, (10S)-10-ethyl-2,8-difluoro-3-(trifluoromethyl)-10,11,12,13-tetrahydro-19H-5,18-methanodibenzo[c,f]pyrido[3,2-j][1,5,9]triazacyclotridecine-15,19(14H)-dione], for which the IC50 was 631 nM. Consider `Cc1c(F)ccc2c1CNCCc1[nH]c(=O)ccc1N1CN2c2cc(C(F)(F)F)c(F)cc2C1=O` [Example 61, 2,8-Difluoro-9-methyl-3-(trifluoromethyl)-10,11,12,13-tetrahydro-19H-5,18-methanodibenzo[c,f]pyrido[3,2-j][1,5,9]triazacyclotridecine-15,19(14H)-dione hydrochloride], for which the IC50 is 3.98 nM.

Take `C[C@@H]1NCCc2[nH]c(=O)ccc2N2CN(c3ccc(C(F)(F)F)cc3C2=O)c2ccc(F)cc21` [Example 116, (10S)-8-fluoro-10-methyl-2-(trifluoromethyl)-10,11,12,13-tetrahydro-19H-5,18-methanodibenzo[c,f]pyrido[3,2-j][1,5,9]triazacyclotridecine-15,19(14H)-dione]: the IC50 is 126 nM.
